Key:
[1] = system: Staphylococcus aureus (S. aureus) 11540 strain; assay: standard microdilution assay to determine minimum inhibitory concentrations (MICs), S. aureus; assay type: cell-based
Procedure: (§1) The in vitro activity of the compounds of the present disclosure can be determined. Antimicrobial testing is typically performed to determine the minimum inhibitory concentration (MIC). Minimum inhibitory concentrations (MICs) are determined by the microdilution method in a final volume of 100 μl according to protocols outlined by The Clinical and Laboratory Standards Institute (CLSI). Performance standards for reference strains are assessed within the same experimental design to maintain quality control. See, for example, Clinical Laboratory Standards Institute: Methods for dilution antimicrobial susceptibility tests for bacteria that grow aerobically M7-A8. Approved Standard-Eighth Edition. Wayne, PA: CLSI; December 2008: and Clinical Laboratory Standards Institute: Performance Standards for Antimicrobial Susceptibility Testing M100-S20; Approved Standard-Twentieth Edition. Wayne, PA: CLSI; June 2010. The compounds of the present disclosure were tested for antimicrobial activity. The Compounds 1-122 were run against Eschericia coli (E. coli) strain ATCC25922 and against Staphylococcus aureus (S. aureus) 11540 strain using a standard microdilution assay to determine minimum inhibitory concentrations (MICs). […] It will be recognized by one skilled in the art that the compounds can be assessed against other bacterial organisms and that the presentation of data for activity against Eschericia coli and Staphylococcus aureus are illustrative and in no way is intended to limit the scope of the present disclosure. The compounds of the present disclosure can be assayed against a range of other microorganisms depending upon the performance activity desired to be gathered. Furthermore, the “+” and “−” representation and the selection of a cutoff value of 16 micrograms/mL is also illustrative and in no way is intended to limit the scope of the present disclosure.

[2] = system: Eschericia coli (E. coli) strain ATCC25922; assay: standard microdilution assay to determine minimum inhibitory concentrations (MICs), E. coli; assay type: cell-based; conditions: Escherichia coli
Procedure: as §1

MIC [1]	MIC [2]	SMILES
≤ 16 µg/mL	≤ 16 µg/mL	C=CCN1[C@H](CCSC(=N)N)CCC[C@H]1c1ccc(-n2cc3cc(-c4cc(CCC[C@H](C)N)cc(Cl)c4F)[nH]c3nc2=O)cc1 [Compound 46]
≤ 16 µg/mL	≤ 16 µg/mL	C=C[C@H](N)CCCc1cc(Cl)c(F)c(-c2cc3cn(-c4ccc([C@@H]5CCC[C@@H](CCSC(=N)N)N5C)cc4)c(=O)nc3[nH]2)c1 [Compound 50]
≤ 16 µg/mL	≤ 16 µg/mL	C[C@H](N)CCCc1cc(Cl)c(F)c(-c2cc3cn(-c4ccc([C@@H]5CCCC[C@@H](CCSC(=N)N)N5)cc4)c(=O)nc3[nH]2)c1 [Compound 52]
≤ 16 µg/mL	≤ 16 µg/mL	CC(N)c1cc(Cl)c(F)c(-c2cc3cn(-c4ccc([C@@H]5CCC[C@@H](CCSC(=N)N)N5)cc4)c(=O)nc3[nH]2)c1 (stereo partly shown) [Compound 54]
≤ 16 µg/mL	≤ 16 µg/mL	CCCN1[C@H](CCSC(=N)N)CCC[C@H]1c1ccc(-n2cc3cc(-c4cc(CCC[C@H](C)N)cc(Cl)c4F)[nH]c3nc2=O)cc1 [Compound 56]
≤ 16 µg/mL	≤ 16 µg/mL	C[C@H](N)CCCc1cc(Cl)c(F)c(-c2cc3cn(-c4ccc([C@@H]5CCC=C[C@@H](CCSC(=N)N)N5)cc4)c(=O)nc3[nH]2)c1 [Compound 59]
≤ 16 µg/mL	≤ 16 µg/mL	C[C@H](N)CCCN1CC=C(c2cc3cn(-c4ccc([C@@H]5CCC[C@@H](CCSC(=N)N)N5)cc4)c(=O)nc3[nH]2)C1 [Compound 75]
≤ 16 µg/mL	≤ 16 µg/mL	CC(C[C@@H]1CCC[C@@H](c2ccc(-n3cc4cc(-c5cc(CCC[C@H](C)N)cc(Cl)c5F)[nH]c4nc3=O)cc2)N1)SC(=N)N (stereo partly shown) [Compound 78]
≤ 16 µg/mL	≤ 16 µg/mL	COC[C@H](N)CCCc1cc(Cl)c(F)c(-c2cc3cn(-c4ccc([C@@H]5CCC[C@@H](CCSC(=N)N)N5)cc4)c(=O)nc3[nH]2)c1 [Compound 80]
≤ 16 µg/mL	≤ 16 µg/mL	CCc1cc(CCC[C@H](C)N)cc(-c2cc3cn(-c4ccc([C@@H]5CCC[C@@H](CCSC(=N)N)N5)cc4)c(=O)nc3[nH]2)c1Cl [Compound 82]
≤ 16 µg/mL	≤ 16 µg/mL	CC(C)c1cc(CCC[C@H](C)N)cc(-c2cc3cn(-c4ccc([C@@H]5CCC[C@@H](CCSC(=N)N)N5)cc4)c(=O)nc3[nH]2)c1F [Compound 84]
≤ 16 µg/mL	≤ 16 µg/mL	CCc1cc(CCC[C@H](C)N)cc(-c2cc3cn(-c4ccc([C@@H]5CCC[C@@H](CCSC(=N)N)N5)cc4)c(=O)nc3[nH]2)c1F [Compound 85]
≤ 16 µg/mL	≤ 16 µg/mL	C[C@H](N)CCCc1cc(-c2cc3cn(-c4ccc([C@@H]5CCC[C@@H](CCSC(=N)N)N5)cc4)c(=O)nc3[nH]2)cc(C(C)(C)C)c1 [Compound 86]
≤ 16 µg/mL	≤ 16 µg/mL	CCc1cc(CCC[C@H](C)N)cc(-c2cc3cn(-c4ccc([C@@H]5CCC[C@@H](CCSC(=N)N)N5)cc4)c(=O)nc3[nH]2)c1 [Compound 87]
≤ 16 µg/mL	≤ 16 µg/mL	C[C@H](N)CCCc1cc(-c2cc3cn(-c4ccc([C@@H]5CCC[C@@H](CCSC(=N)N)N5)cc4)c(=O)nc3[nH]2)cc(C(C)(F)F)c1 [Compound 89]
≤ 16 µg/mL	≤ 16 µg/mL	CC(C)CN1[C@H](CCSC(=N)N)CCC[C@H]1c1ccc(-n2cc3cc(-c4cc(CCC[C@H](C)N)cc(Cl)c4F)[nH]c3nc2=O)cc1 [Compound 90]
≤ 16 µg/mL	≤ 16 µg/mL	CSCCN1[C@H](CCSC(=N)N)CCC[C@H]1c1ccc(-n2cc3cc(-c4cc(CCC[C@H](C)N)cc(Cl)c4F)[nH]c3nc2=O)cc1 [Compound 91]
≤ 16 µg/mL	≤ 16 µg/mL	CC(=O)c1cc(CCC[C@H](C)N)cc(-c2cc3cn(-c4ccc([C@@H]5CCC[C@@H](CCSC(=N)N)N5)cc4)c(=O)nc3[nH]2)c1 [Compound 92]
≤ 16 µg/mL	≤ 16 µg/mL	C[C@H](N)CCCc1cc(-c2cc3cn(-c4ccc([C@@H]5CCC[C@@H](CCSC(=N)N)N5)cc4)c(=O)nc3[nH]2)cc2c1CCCC2 [Compound 93]
≤ 16 µg/mL	≤ 16 µg/mL	C=CCCN1[C@H](CCSC(=N)N)CCC[C@H]1c1ccc(-n2cc3cc(-c4cc(CCC[C@H](C)N)cc(Cl)c4F)[nH]c3nc2=O)cc1 [Compound 94]
≤ 16 µg/mL	≤ 16 µg/mL	CC(Br)CCN1[C@H](CCSC(=N)N)CCC[C@H]1c1ccc(-n2cc3cc(-c4cc(CCC[C@H](C)N)cc(Cl)c4F)[nH]c3nc2=O)cc1 (stereo partly shown) [Compound 95]
≤ 16 µg/mL	≤ 16 µg/mL	COC(=O)CN1[C@H](CCSC(=N)N)CCC[C@H]1c1ccc(-n2cc3cc(-c4cc(CCC[C@H](C)N)cc(Cl)c4F)[nH]c3nc2=O)cc1 [Compound 96]

Further lines, the molecule ahead of its results:

SMILES	MIC [1]	MIC [2]
C[C@H](N)CCO[C@H]1CNC(c2cc3cn(-c4ccc([C@@H]5CCC[C@@H](CCSC(=N)N)N5)cc4)c(=O)nc3[nH]2)C1 (stereo partly shown) [Compound 47]	≤ 16 µg/mL	≤ 16 µg/mL
N=C(N)SCC[C@@H]1CCC[C@@H](c2ccc(-n3cc4cc(C5C[C@@H](OCc6ccccc6)CN5)[nH]c4nc3=O)cc2)N1 (stereo partly shown) [Compound 49]	≤ 16 µg/mL	≤ 16 µg/mL
N=C(N)SCC[C@@H]1CCC[C@@H](c2ccc(-n3cc4cc(C5C[C@H]6CCCC[C@@H]6N5)[nH]c4nc3=O)cc2)N1 (stereo partly shown) [Compound 51]	≤ 16 µg/mL	≤ 16 µg/mL
C[C@H](N)CCCN1C(c2cc3cn(-c4ccc([C@@H]5CCC[C@@H](CCSC(=N)N)N5)cc4)c(=O)nc3[nH]2)C[C@H]2CCCC[C@@H]21 (stereo partly shown) [Compound 53]	≤ 16 µg/mL	≤ 16 µg/mL
CO[C@@H]1CC(c2cc3cn(-c4ccc([C@@H]5CCC[C@@H](CCSC(=N)N)N5)cc4)c(=O)nc3[nH]2)N(CCC[C@H](C)N)C1 (stereo partly shown) [Compound 57]	≤ 16 µg/mL	≤ 16 µg/mL
C[C@H](N)CCCN1C=C(c2cc3cn(-c4ccc([C@@H]5CCC[C@@H](CCSC(=N)N)N5)cc4)c(=O)nc3[nH]2)CCC1 [Compound 58]	≤ 16 µg/mL	≤ 16 µg/mL
C[C@@H]1CNC(c2cc3cn(-c4ccc([C@@H]5CCC[C@@H](CCSC(=N)N)N5)cc4)c(=O)nc3[nH]2)C1 (stereo partly shown) [Compound 61]	≤ 16 µg/mL	≤ 16 µg/mL
C[C@H](N)CCCN1C(c2cc3cn(-c4ccc([C@@H]5CCC[C@@H](CCSC(=N)N)N5)cc4)c(=O)nc3[nH]2)C[C@@H]2CCCC[C@@H]21 (stereo partly shown) [Compound 62]	≤ 16 µg/mL	≤ 16 µg/mL
C[C@@H](N)CCCN1C[C@H](OCc2ccccc2)CC1c1cc2cn(-c3ccc([C@@H]4CCC[C@@H](CCSC(=N)N)N4)cc3)c(=O)nc2[nH]1 (stereo partly shown) [Compound 63]	≤ 16 µg/mL	≤ 16 µg/mL
C[C@@H](N)CCCN1C[C@@H](O)CC1c1cc2cn(-c3ccc([C@@H]4CCC[C@@H](CCSC(=N)N)N4)cc3)c(=O)nc2[nH]1 (stereo partly shown) [Compound 64]	≤ 16 µg/mL	≤ 16 µg/mL
C[C@@H](N)CCCN1C[C@H](N)CC1c1cc2cn(-c3ccc([C@@H]4CCC[C@@H](CCSC(=N)N)N4)cc3)c(=O)nc2[nH]1 (stereo partly shown) [Compound 65]	≤ 16 µg/mL	≤ 16 µg/mL
CN[C@@H]1CC(c2cc3cn(-c4ccc([C@@H]5CCC[C@@H](CCSC(=N)N)N5)cc4)c(=O)nc3[nH]2)N(CCC[C@@H](C)N)C1 (stereo partly shown) [Compound 66]	≤ 16 µg/mL	≤ 16 µg/mL
C[C@H]1CC(c2cc3cn(-c4ccc([C@@H]5CCC[C@@H](CCSC(=N)N)N5)cc4)c(=O)nc3[nH]2)N(CCC[C@@H](C)N)C1 (stereo partly shown) [Compound 67]	≤ 16 µg/mL	≤ 16 µg/mL
C[C@@H](N)CCCN1C[C@H](F)CC1c1cc2cn(-c3ccc([C@@H]4CCC[C@@H](CCSC(=N)N)N4)cc3)c(=O)nc2[nH]1 (stereo partly shown) [Compound 69]	≤ 16 µg/mL	≤ 16 µg/mL
C[C@@H](N)CCCN1CC(F)(F)CC1c1cc2cn(-c3ccc([C@@H]4CCC[C@@H](CCSC(=N)N)N4)cc3)c(=O)nc2[nH]1 (stereo partly shown) [Compound 71]	≤ 16 µg/mL	≤ 16 µg/mL
C[C@H](N)CCCN1CCC=C(c2cc3cn(-c4ccc([C@@H]5CCC[C@@H](CCSC(=N)N)N5)cc4)c(=O)nc3[nH]2)C1 [Compound 73]	≤ 16 µg/mL	≤ 16 µg/mL
C[C@@H](N)CCCN1CC(C)(C)CC1c1cc2cn(-c3ccc([C@@H]4CCC[C@@H](CCSC(=N)N)N4)cc3)c(=O)nc2[nH]1 (stereo partly shown) [Compound 74]	≤ 16 µg/mL	≤ 16 µg/mL
C[C@@H](N)CCCN1C[C@H](Cc2ccccc2)CC1c1cc2cn(-c3ccc([C@@H]4CCC[C@@H](CCSC(=N)N)N4)cc3)c(=O)nc2[nH]1 (stereo partly shown) [Compound 76]	≤ 16 µg/mL	≤ 16 µg/mL
C[C@@H](N)CCCN1C(c2cc3cn(-c4ccc([C@@H]5CCC[C@@H](CCSC(=N)N)N5)cc4)c(=O)nc3[nH]2)CC[C@@H]1c1ccccc1 (stereo partly shown) [Compound 77]	> 16 µg/mL	≤ 16 µg/mL
C[C@@H](N)CCCN1C[C@H](CO)CC1c1cc2cn(-c3ccc([C@@H]4CCC[C@@H](CCSC(=N)N)N4)cc3)c(=O)nc2[nH]1 (stereo partly shown) [Compound 81]	≤ 16 µg/mL	≤ 16 µg/mL
CN[C@H]1CNC(c2cc3cn(-c4ccc([C@@H]5CCC[C@@H](CCSC(=N)N)N5)cc4)c(=O)nc3[nH]2)C1 (stereo partly shown) [Compound 83]	≤ 16 µg/mL	≤ 16 µg/mL
N=C(N)SCC[C@@H]1CCC[C@@H](c2ccc(-n3cc4cc(C5C[C@@H](N)CN5)[nH]c4nc3=O)cc2)N1 (stereo partly shown) [Compound 88]	≤ 16 µg/mL	≤ 16 µg/mL

From US12234238B2, “Antimicrobial compounds and methods of making and using the same” (BIOVERSYS AG, priority 2017, dated 2025)
